Experiment [1] deals with androecious plants (cucurbitaceae). In words: Induction of female flowers in androecious plants by ethrel. Format: in vivo. Particulars: androecious plants treated with ethrel. From the text:
The inventors wished to study the transmission of the androecious phenotype from one generation to the other. However, due to the nature of the plants, it is obviously impossible to fecundate an androecious plant with itself or another androecious plant.
The inventors have then treated the plants with ethrel, a growth regulator known for inducing female flowers in cucurbitaceae. […] The seeds derived from this fruit have been planted to produce plants which phenotype is androecious: the androecious phenotype of the present invention is thus heritable.

The next experiment deals with monoecious melon plants. Particulars: monoecious plants treated by ethrel; prior art; cited from earlier work.
In experiment [2] the target is Cucumis melo ACS8 variant Cmacs8_L45F (L45→F), SEQ ID No 15 (Cucumis melo, UniProt A0A0S2C3P7, L45F). Format: biochemical. Particulars: PLP 5 μm; pH 8.5, 25° C. How it is done:
(§1) Dosing the Transforming Activity of Methionine S-adenosyl into Aminocyclopropane Carboxylate by the 1-aminocyclopropane-1-carboxylate Synthase 8 (ACS8)
(§2) The enzymatic activity of the ACS8 is measured in vitro by following, by 265-nm spectrophotometry, the formation of 5′-methylthioadenosine (MTA) after involving methionine S-adenosyl, deaminase and different PLP concentrations (pyridoxal 5′-phosphate).
The bacterial strain Escherichia coli BL21(DE3)pLYSS is used for the expression of the enzyme. The cloning vector used is the plasmid pET15b (NOVAGEN) which carries the promoter T7 and comprises resistance to ampicillin. S-adenosyl Methionine (SAM), Pyridoxal 5′phosphate (PLP) and 5′Adenylic Acid Deaminase of Aspergillus (deaminase) are available from the SIGMA company. […]
Due to the presence of a Histidine tag associated with each of the ACS8, the latter are purified by using a nickel column (Ni-IDA 15 ml) previously balanced with TRIS at PH8 and NaCl (500 mM). After passing the solution containing recombinant ACS8 to be purified, the column is then washed with TRIS at PH8 (50 mM) and NaCl (500 mM) added with imidazole (10 mM) until no protein can be detected at the output any longer. […]

Experiment [3] deals with Cucumis melo ACS8 (1-aminocyclopropane-1-carboxylate synthase 8), CmACS8, wild, SEQ ID No 12 (Cucumis melo, UniProt A0A0S2C3P7). In words: Transforming activity of methionine S-adenosyl into aminocyclopropane carboxylate (MTA formation at 265 nm). Format: biochemical. Particulars: pH 8.5, 25° C. How it is done: as §1, §2
(§3) The bacterial strain Escherichia coli BL21(DE3)pLYSS is used for the expression of the enzyme. The cloning vector used is the plasmid pET15b (NOVAGEN) which carries the promoter T7 and comprises resistance to ampicillin. S-adenosyl Methionine (SAM), Pyridoxal 5′phosphate (PLP) and 5′Adenylic Acid Deaminase of Aspergillus (deaminase) are available from the SIGMA company.
(§4) These bacteria Escherichia coli BL21(DE3)pLYSS transformed with the construct carrying the 1-aminocyclopropane-1-carboxylate synthase 8 (ACS8) are incubated in 25 ml LURIA-BERTANI medium (tryptone 10 g/L, yeast extract 5 g/L, NaCl 10 g/L) added with ampicillin and chloramphenicol (50 μg/ml each) overnight at 37° C. This pre-culture is used to inoculate 2 litres of the same medium added with ampicillin (50 μg/ml) and the cells are cultivated at 37° C. in a stirred incubator (180 rpm) up to 0.6 Optical Density (DO=600 nm). IPTG is added (0.5 mM) so as to induce the protein expression during a new 5-hour culture phase at 25° C. Cells are centrifuged and kept overnight at −45° C. Cells are then re-suspended in 15 ml TrisNaCl (50 mM, pH7.9, 500 mM, respectively) then subjected to ice sonication in the presence of a protease inhibitor (phenylmethanesulfonyl fluoride), leupeptin, pepstatin and aprotinin, 10 μg/ml each). The cellular debris are removed during a new centrifugation step at 13,000 g during 15 minutes and the supernatant is immediately used for enzymatic purification.
(§5) Due to the presence of a Histidine tag associated with each of the ACS8, the latter are purified by using a nickel column (Ni-IDA 15 ml) previously balanced with TRIS at PH8 and NaCl (500 mM). After passing the solution containing recombinant ACS8 to be purified, the column is then washed with TRIS at PH8 (50 mM) and NaCl (500 mM) added with imidazole (10 mM) until no protein can be detected at the output any longer. The ACS8 are then eluted with the same buffer solution added with imidazole at 100 mM, then dialysed (KPhos 50 mM á PH8.5) before concentration (MILLIPORE AMICON ULTRA DEVICE, 5000 MWC0). The concentrated fraction (20 mg/ml) of ACS8 is aliquoted and stored with glycerol at −45° C. The purification of protein is followed by capillary electrophoresis (EXPERION DEVICE—BIO RAD) with a PRO260 chip.

Experiment [4] has as its target Cucumis melo ACS8 variant Cmacs8_G72E (G72E), SEQ ID not listed (Cucumis melo, UniProt A0A0S2C3P7, G72E). Described as above. Format: biochemical. Particulars: pH 8.5, 25° C. How it is done: as §1, §2, §3, §4, §5
Experiment [5] has as its target Cucumis melo ACS8 variant Cmacs8_S295F (S295→F), SEQ ID No 18 (Cucumis melo, UniProt A0A0S2C3P7, S295F). The description is as above. Format: biochemical. Particulars: pH 8.5, 25° C. How it is done:
as §1, §2, §3, §4, §5

The target of experiment [6] is T1, Cucumis sativus ACS8 (1-aminocyclopropane-1-carboxylate synthase 8), CsACS8, wild, SEQ ID No 3 (Cucumis sativus, UniProt A0A0A0LKW1).
T1 construct: N-terminus MASLSSKASHDSHGQNSS
T1 sequence (A0A0A0LKW1 1-440): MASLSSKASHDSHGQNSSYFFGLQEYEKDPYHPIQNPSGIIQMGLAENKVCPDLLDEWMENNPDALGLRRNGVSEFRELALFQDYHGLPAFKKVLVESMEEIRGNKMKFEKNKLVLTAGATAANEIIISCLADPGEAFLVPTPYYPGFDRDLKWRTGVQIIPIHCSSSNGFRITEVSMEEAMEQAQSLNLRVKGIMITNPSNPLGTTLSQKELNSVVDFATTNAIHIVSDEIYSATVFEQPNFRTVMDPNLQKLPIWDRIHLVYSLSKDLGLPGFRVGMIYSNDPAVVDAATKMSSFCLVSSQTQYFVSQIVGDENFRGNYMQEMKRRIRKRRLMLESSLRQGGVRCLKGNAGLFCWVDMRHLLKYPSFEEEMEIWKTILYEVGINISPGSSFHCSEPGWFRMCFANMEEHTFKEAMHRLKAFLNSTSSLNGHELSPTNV
The experiment is described as above. Format: biochemical. Particulars: pH 8.5, 25° C. On the procedure: as §1, §2, §3, §4, §5

This is an account of results in US11236357B2, “Methods of obtaining androecious cucurbit plants” (INSTITUT NATIONAL DE LA RECHERCHE AGRONOMIQUE (INRA), priority 2012, dated 2022).

Cucumis melo ACS8 (1-aminocyclopropane-1-carboxylate synthase 8), CmACS8, wild, SEQ ID No 12, sequence (A0A0S2C3P7 1-440): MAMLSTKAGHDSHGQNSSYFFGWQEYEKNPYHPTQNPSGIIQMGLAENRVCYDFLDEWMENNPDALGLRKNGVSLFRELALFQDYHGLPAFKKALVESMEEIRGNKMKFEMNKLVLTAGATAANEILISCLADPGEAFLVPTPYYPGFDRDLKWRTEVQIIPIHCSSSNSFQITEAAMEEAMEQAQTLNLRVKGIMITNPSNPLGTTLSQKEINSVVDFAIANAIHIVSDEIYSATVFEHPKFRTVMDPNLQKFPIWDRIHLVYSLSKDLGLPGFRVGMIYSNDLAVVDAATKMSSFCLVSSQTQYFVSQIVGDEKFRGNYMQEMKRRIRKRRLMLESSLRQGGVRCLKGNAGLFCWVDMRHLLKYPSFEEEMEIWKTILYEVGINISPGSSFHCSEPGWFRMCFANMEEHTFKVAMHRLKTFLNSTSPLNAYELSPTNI
Cucumis melo ACS8 variant Cmacs8_S295F (S295→F), SEQ ID No 18, sequence (A0A0S2C3P7 entry or part of it S295F): as the sequence (A0A0S2C3P7 1-440) above, with S295F counted along it
Cucumis melo ACS8 variant Cmacs8_G72E (G72E), SEQ ID not listed, sequence (A0A0S2C3P7 entry or part of it G72E): as the sequence (A0A0S2C3P7 1-440) above, with G72E counted along it
Cucumis melo ACS8 variant Cmacs8_L45F (L45→F), SEQ ID No 15, sequence (A0A0S2C3P7 entry or part of it L45F): as the sequence (A0A0S2C3P7 1-440) above, with L45F counted along it

For the compound `O=P(O)(O)CCCl` [ethrel], the “production of female flowers after treatment” value in experiment [1] is “briefly produced female flowers”. For the same compound, in the experiment with monoecious melon plants, the “effect on male flowers” value is given as “temporary disappearance of male flowers”.

With `C[S+](CC[C@H](N)C(=O)[O-])C[C@H]1O[C@@H](n2cnc3c(N)ncnc32)[C@H](O)[C@@H]1O` (some centres unmarked) [S-adenosyl Methionine], the Km in experiment [2] is 23 ± 4 µM; in experiment [3] (PLP 5 μm), 20 ± 5 µM; in experiment [3] (PLP 100 μm) it was 20 ± 5 µM; in experiment [4] (PLP 5 μm) it was 17 ± 5 µM; in experiment [4] (PLP 100 μm) it was 15 ± 5 µM; in experiment [5] (PLP 5 μm) it was 16 ± 5 µM. In addition, the Km was 15 ± 5 µM in experiment [5] (PLP 100 μm), 20 ± 6 µM in experiment [6] (PLP 5 μm) and 25 ± 6 µM in experiment [6] (PLP 100 μm).
